Measurements published in article PMC10252594 (Cancers, 2023).
Several values for one entry are separate records, joined by “and”; a condition that tells them apart may be missing. Identical values can stand only once.

Test system: LAPC-4 xenografts
Assay: Fatty acid determination (GC-FID) in LAPC-4 xenograft experiment
Type: in vivo, mice
Details: LAPC-4 tumor, 10 mg/kg PO
Experimental: […] The fatty acid profile was next determined by gas chromatography (GC), coupled with a flame ionization detector (FID), using phosphatidylcholine C21:0 (Avanti Polar Lipids) as an internal standard. The GC model 5890 was from Agilent Technologies (Mississauga, ON, Canada). The capillary column used was a HP-88 (100 m × 0.25 mm, […], Agilent Technologies), and the carrier gas was helium at 1.5 mL/min. A total of 56 fatty acids were identified according to their retention time, using fatty acid mixtures as standards.

## C#C[C@]1(O)CC[C@H]2[C@@H]3CCc4cc(OC)c(N5CCN(C(=O)[C@@H]6CCCN6C(=O)c6ccc7ccccc7n6)CC5)cc4[C@H]3CC[C@@]21C [RM-581]
28 days, Table S1
  Dimethoxyoctadecenoic acid (9c) w9 18:1, FA RM-581 % of total: 0.29%
  Elaidic acid (9t) w9 18:1, FA RM-581: 0 mg/g
  Elaidic acid (9t) w9 18:1, FA RM-581 % of total: 0%
  Erucic acid w9 22:1, FA RM-581: 0.025 mg/g
  Erucic acid w9 22:1, FA RM-581 % of total: 0.10%
  FA (1c) w14 15:1, FA RM-581: 0 mg/g
  FA (1c) w14 15:1, FA RM-581 % of total: 0%
  FA (5c) w10 15:1, FA RM-581: 0 mg/g
  FA (5c) w10 15:1, FA RM-581 % of total: 0%
  FA (5t) w10 15:1, FA RM-581: 0 mg/g
  FA (5t) w10 15:1, FA RM-581 % of total: 0%
  FA (7c) w10 17:1, FA RM-581: 0.05 mg/g
  FA (7c) w10 17:1, FA RM-581 % of total: 0.20%
  FA (7t) w10 17:1, FA RM-581: 0.02 mg/g
  FA (7t) w10 17:1, FA RM-581 % of total: 0.09%
  FA (8c11c14c17c) w3 20:4, FA RM-581: 0.04 mg/g
  FA (8c11c14c17c) w3 20:4, FA RM-581 % of total: 0.16%
  FA (8c) w12 20:1, FA RM-581: 0 mg/g
  FA (8c) w12 20:1, FA RM-581 % of total: 0%
  FA (9c12t) w6 18:2, FA RM-581: 0.02 mg/g
  FA (9c12t) w6 18:2, FA RM-581 % of total: 0.09%
  FA (9t12c) w6 18:2, FA RM-581: 0 mg/g
  FA (9t12c) w6 18:2, FA RM-581 % of total: 0%
  FA (9t12t15t) w3 18:3, FA RM-581: 0.01 mg/g
  FA (9t12t15t) w3 18:3, FA RM-581 % of total: 0.03%
  FA (9t) w5 14:1, FA RM-581: 0.01 mg/g
  FA (9t) w5 14:1, FA RM-581 % of total: 0.03%
  FA (9t) w13 22:1, FA RM-581: 0 mg/g
  FA (9t) w13 22:1, FA RM-581 % of total: 0%
  FA (11c14c17c) w3 20:3, FA RM-581: 0 mg/g
  FA (11c14c17c) w3 20:3, FA RM-581 % of total: 0%
  FA (11c14c) w6 20:2, FA RM-581: 0.08 mg/g
  FA (11c14c) w6 20:2, FA RM-581 % of total: 0.34%
  FA (12c) w6 18:1, FA RM-581: 0 mg/g
  FA (12c) w6 18:1, FA RM-581 % of total: 0%
  FA (13c16c19c) w3 22:3, FA RM-581: 0 mg/g
  FA (13c16c19c) w3 22:3, FA RM-581 % of total: 0%
  FA (13c16c) w6 22:2, FA RM-581: 0.01 mg/g
  FA (13c16c) w6 22:2, FA RM-581 % of total: 0.04%
  FA (13c) w5 18:1, FA RM-581: 0.02 mg/g
  FA (13c) w5 18:1, FA RM-581 % of total: 0.07%
  Gamma-linolenic acid (6c9c12c) w6 18:3, FA RM-581: 0.05 mg/g
  Gamma-linolenic acid (6c9c12c) w6 18:3, FA RM-581 % of total: 0.19%
  Gondoic acid (11c) w9 20:1, FA RM-581: 0.08 mg/g
  Gondoic acid (11c) w9 20:1, FA RM-581 % of total: 0.32%
  Isobranched 17:0, FA RM-581: 0.02 mg/g
  Isobranched 17:0, FA RM-581 % of total: 0.08%
  Lauric acid 12:0, FA RM-581: 0.02 mg/g
  Lauric acid 12:0, FA RM-581 % of total: 0.10%
  Linolelaidic acid (9t12t) w6 18:2, FA RM-581: 0.03 mg/g
  Linolelaidic acid (9t12t) w6 18:2, FA RM-581 % of total: 0.14%
  Myristoleic acid (9c) w5 14:1, FA RM-581: 0.02 mg/g
  Myristoleic acid (9c) w5 14:1, FA RM-581 % of total: 0.06%
  Palmitelaidic acid (9t) w1 16:1, FA RM-581: 0 mg/g
  Palmitelaidic acid (9t) w1 16:1, FA RM-581 % of total: 0%
  Pentadecanoic acid 15:0, FA RM-581: 0.04 mg/g
  Pentadecanoic acid 15:0, FA RM-581 % of total: 0.17%
  Petroselaidic acid (6t) w12 18:1, FA RM-581: 0 mg/g
  Petroselaidic acid (6t) w12 18:1, FA RM-581 % of total: 0%
  Petroselinic acid (7c-n11/6c-n12) w11/12 18:1, FA RM-581: 0 mg/g
  Petroselinic acid (7c-n11/6c-n12) w11/12 18:1, FA RM-581 % of total: 0%
  Stearidonic acid (6c9c12c15c) w3 18:4, FA RM-581: 0 mg/g
  Stearidonic acid (6c9c12c15c) w3 18:4, FA RM-581 % of total: 0%
  Timnodonic acid (5c8c11c14c17c) w3 20:5, FA RM-581: 0.025 mg/g
  Timnodonic acid (5c8c11c14c17c) w3 20:5, FA RM-581 % of total: 0.10%
  Trans-vaccenic acid (11t) w7 18:1, FA RM-581: 0.03 mg/g
  Trans-vaccenic acid (11t) w7 18:1, FA RM-581 % of total: 0.13%
10 mg/kg
  increase in linoleic acid level inside the tumors: 1.59 mg/g and ~ 5.7 mM
  increase in oleic acid level inside the tumors: 1.26 mg/g and ~ 4.5 mM
